Laboratory results from US9353067B2, “Heterocyclic compounds and uses thereof in the treatment of sexual disorders” (ATIR Holding S.A., priority 2011, dated 2016).
Several values for one entry are separate records, joined by “and”; a condition that tells them apart may be missing. Identical values can stand only once.

Assays:
[1] = Solubility of R-55 in solvents for transdermal formulation; assay type: physicochemical
Protocol: To this effect, a stable oil-in-water emulsion was developed. Various solvents were tested in order to achieve an R-55 concentration of up to 20 mg/gram in the lipid phase of the emulsion, in order to achieve a total concentration of up to 10 mg/gram R-55.
The following organic solvents which are used in transdermal formulations were tested: […]

[2] = Transdermal administration of R-55 formulation to pigs, plasma R-55; assay type: in vivo, White Landrace female pigs
Protocol: R-55 and related compounds were assayed in the plasma samples using a Waters (USA) Alliance high performance liquid chromatograph coupled with a Waters Micromass ZQ quadruple mass spectrometer (in ESI+ mode) as a detector with Waters Empower chromatographic and mass spectrometric software for chromatographic data acquisition, processing and instrument control.
The tested compound was extracted from plasma using dichloromethane, followed by concentration by evaporating the extract and dissolution in a low volume chromatographic mobile phase.
The instrument was calibrated using plasma spiked with various concentrations of the tested compound. Enrofloxacin (m/z=360.4) was used as an internal standard.
In order to investigate the feasibility of transdermal administration of R-55, the presence of R-55 in plasma was measured following administration to pigs of the exemplary transdermal formulation described in Example 5.
White Landrace female pigs were acclimatized for 5 days prior to application of the formulation. 50 ml of the formulation (containing 500 mg R-55) was applied over a 15×7 cm area of the skin of each pig, in a single dose. In order to facilitate constant transdermal administration for at least 6 hours, a suitable plastic shield, attached by adhesive plaster, was used to cover the whole treated dermal surface area for six hours.
Clinical observations were performed during the six hours following application.
Blood samples were withdrawn from each pig via a jugular vein catheter at the following time points: immediately prior to application (t=0) and 15 minutes, 30 minutes, 45 minutes, 60 minutes, 90 minutes, 2 hours, 4 hours, and 6 hours post-application. All samples were collected in commercially available, EDTA supplemented test-tubes. Blood samples were stored on crushed ice after collection. Plasma was separated by centrifugation (10 minutes at 3000 rotations per minute), within one hour post-sampling. Each plasma sample was divided into two aliquots before freezing. Plasma samples were then stored at −20° C. until being dispatched for LCMS analysis.

[3] = target: D4.4 type dopamine receptor (Homo sapiens (Human), UniProt P21917); test: Competitive binding to D4.4 receptor ([3H]-YM-09151-2); details: human recombinant receptor in CHO cells, [3H]-YM-09151-2 0.3 nM
Chain of D4.4 type dopamine receptor (P21917 whole entry): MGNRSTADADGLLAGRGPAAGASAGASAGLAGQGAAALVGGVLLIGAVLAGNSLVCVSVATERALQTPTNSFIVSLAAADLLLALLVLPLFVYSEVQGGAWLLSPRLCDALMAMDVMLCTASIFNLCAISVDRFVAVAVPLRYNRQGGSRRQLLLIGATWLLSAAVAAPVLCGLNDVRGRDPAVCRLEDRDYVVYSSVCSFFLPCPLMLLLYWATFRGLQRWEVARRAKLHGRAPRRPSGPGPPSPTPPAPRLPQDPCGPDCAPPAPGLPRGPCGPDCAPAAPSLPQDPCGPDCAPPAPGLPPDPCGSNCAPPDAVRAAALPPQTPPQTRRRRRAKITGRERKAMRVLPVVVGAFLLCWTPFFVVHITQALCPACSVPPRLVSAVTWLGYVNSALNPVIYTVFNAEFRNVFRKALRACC
Protocol: R-55 (which comprises a 3-hydroxyphenyl moiety) and its isomers L-221 (comprising a 4-hydroxyphenyl moiety) and L-238 (comprising a 2-hydroxyphenyl moiety) were assayed for competitive binding to D2 SHORT and D4.4 type dopamine receptors, in order to assess their efficacy for treating sexual disorders. Both receptor types are expressed as human recombinant proteins in CHO cells, as described, for example, in Jarvis et al. (1973); Van Tol et al. (1991) and Van Tol et al. (1992).
Determination of binding to D4.4 receptor was performed using [^3H]-YM-09151-2 (70-87 Ci/mmol, 0.3 nM), as a radioligand, in the presence of various concentrations of the tested compound. Reactions were carried out in 50 mM TRIS-HCl (pH 7.4) containing 5 mM MgCl2, 5 mM EDTA, 5 mM KCl and 1.5 mM CaCl2, for 60 minutes at 22° C. The reaction was terminated by rapid vacuum filtration onto glass fiber filters. Radioactivity trapped onto the filters was determined (counted) and compared to control values in order to accurately evaluate any interaction of the tested compound(s) with the cloned dopamine D4.4 binding site.

Adrenergic α1 receptor = test: Competitive binding, prazosin radioligand; design: species or system Wistar rat
Protocol: (§1) R-55 (which comprises a 3-hydroxyphenyl moiety) and the structurally related compounds N-108 (2-{[4-(2-ethoxyphenyl)piperazin-1-yl]methyl}quinazolin-4(3H)-one) and B-39 (7-chloro-2-((5,6-dihydro-4-(2-methoxyphenyl)pyridin-1(2H)-yl)methyl)quinazolin-4(3H)-one) were assayed for competitive binding to a variety of receptors, including D4.4 type dopamine receptor, in order to assess their specificity for D4.4 dopamine receptors.
(§2) The receptors were expressed as human recombinant proteins in CHO cells, except for adrenergic α1 and α2 receptors which were expressed in Wistar rat brain and cerebral cortex cells, respectively, and melanocortin MC4 receptor which was expressed in human recombinant HEK-293 cells. Binding was determined using the following radioligands in the presence of various concentrations of the tested compound:
0.25 nM prazosin for adrenergic α1 receptor,
(§3) The binding assays were performed in accordance with procedures described in the literature (Greengrass & Bremner, 1979; Boyajian & Leslie, 1987; Broadhurst, 1988; Lewis, 2001; Sutton, 1995; Dearry, 1990; Zhou, 1990; Grandy, 1989; Hayes, 1992; Sokoloff, 1990; Van Tol, 1991; Van Tol 1992; Sunahara, 1991; Weinshank, 1991; Schioth, 1996; Schioth 1997; Martin & Humphrey, 1994; May, 2003; Wolf & Schutz, 1997).

CRF1 receptor = CRF1 receptor (Homo sapiens (Human), UniProt P34998); test: Competitive binding, (Tyr0)-CRF radioligand
Chain of CRF1 receptor (P34998 24-415): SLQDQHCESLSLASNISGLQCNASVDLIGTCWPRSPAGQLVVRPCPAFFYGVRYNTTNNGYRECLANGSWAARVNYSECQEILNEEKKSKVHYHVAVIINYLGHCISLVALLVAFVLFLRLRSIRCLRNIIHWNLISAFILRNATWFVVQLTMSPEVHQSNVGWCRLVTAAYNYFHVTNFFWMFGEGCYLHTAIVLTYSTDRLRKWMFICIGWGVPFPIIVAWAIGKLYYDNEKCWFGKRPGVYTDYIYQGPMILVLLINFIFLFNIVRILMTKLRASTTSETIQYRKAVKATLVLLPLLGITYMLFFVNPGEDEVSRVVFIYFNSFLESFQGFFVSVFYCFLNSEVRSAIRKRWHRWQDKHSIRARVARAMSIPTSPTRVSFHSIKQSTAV
Protocol: as §1, §2
0.05 nM)(Tyr^0)-corticotropin releasing factor (CRF) for corticotropin releasing factor CRF1 receptor,
as §3

[4] = target: Serotonin 5-HT1A receptor (Homo sapiens (Human), UniProt P08908); test: Competitive binding, 8-OH-DPAT radioligand
Chain of Serotonin 5-HT1A receptor (P08908 whole entry): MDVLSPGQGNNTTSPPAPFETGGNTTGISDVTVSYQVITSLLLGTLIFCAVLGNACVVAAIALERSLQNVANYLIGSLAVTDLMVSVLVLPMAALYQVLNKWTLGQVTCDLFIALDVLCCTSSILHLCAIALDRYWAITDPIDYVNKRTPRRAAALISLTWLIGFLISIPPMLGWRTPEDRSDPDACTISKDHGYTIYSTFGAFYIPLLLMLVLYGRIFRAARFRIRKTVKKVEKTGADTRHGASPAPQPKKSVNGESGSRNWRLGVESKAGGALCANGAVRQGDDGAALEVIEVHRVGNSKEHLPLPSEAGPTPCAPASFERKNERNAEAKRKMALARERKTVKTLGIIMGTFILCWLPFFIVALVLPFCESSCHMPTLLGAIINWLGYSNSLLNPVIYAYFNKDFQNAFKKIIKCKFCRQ
Protocol: as §1, §2
1.5 nM 8-OH-DPAT for serotonin 5-HT1A receptor, and
as §3

solubility of R-55 in propylene glycol ([1]; propylene glycol (PG)): less than 5 mg/gram
solubility of R-55 in propylene glycol with phosphatidyl choline ([1]; weight ratio of 4:1 PG:PC): 8 mg/gram
concentration at 0 min ([2]; female, White Landrace, pig, plasma, topical, 500 mg, transdermal 500 mg R-55 (50 ml formulation), 0 minutes (immediately prior to application), individual animals #1-#4): 0 ng/mL
concentration at 30 min ([2]; female, White Landrace, pig, plasma, topical, 500 mg, transdermal 500 mg R-55, 30 minutes after application, individual animals #1-#4): 16.7 ng/mL
concentration at 4 h ([2]; female, White Landrace, pig, plasma, topical, 500 mg, transdermal 500 mg R-55, 4 hours after application, individual animals #1-#4): 0 ng/mL
concentration at 6 h ([2]; female, White Landrace, pig, plasma, topical, 500 mg, transdermal 500 mg R-55, 6 hours after application, individual animals #1-#4): 0 ng/mL
R-55 concentration (plasma) ([2]; transdermal 500 mg R-55 (50 ml formulation), 0 minutes (immediately prior to application), individual animals #1-#4): 0 ng/mL
R-55 concentration (plasma) ([2]; transdermal 500 mg R-55, 15 minutes after application, individual animals #1-#4): 0 ng/ml (3×) and 10.8 ng/ml
R-55 concentration (plasma) ([2]; transdermal 500 mg R-55, 30 minutes after application, individual animals #1-#4): 19.9 ng/mL and 11.8 ng/mL and 15.2 ng/mL
R-55 concentration (plasma) ([2]; transdermal 500 mg R-55, 45 minutes after application, individual animals #1-#4): 0 ng/ml (3×) and 10.5 ng/ml
R-55 concentration (plasma) ([2]; transdermal 500 mg R-55, 4 hours after application, individual animals #1-#4): 0 ng/mL
R-55 concentration (plasma) ([2]; transdermal 500 mg R-55, 6 hours after application, individual animals #1-#4): 0 ng/mL
Clinical observations ([2]; transdermal 500 mg R-55, six hours following application): No clinical abnormalities were observed
duration of relatively stable concentration of R-55 in plasma after administration ([2]; transdermal administration): at least 2 hours
IC50 [3]: 500 nM
Competitive binding (%) at 5 μM of tested compound (Adrenergic α1 receptor): 10%
Competitive binding (%) at 5 μM of tested compound (CRF1 receptor): 3%
Competitive binding (%) at 5 μM of tested compound [4]: 7%
Structure (SMILES): O=c1[nH]c(CN2CCN(c3cccc(O)c3)CC2)nc2ccccc12 [Compound R-55, 2-((4-(3-hydroxyphenyl)piperazin-1-yl)methyl)quinazolin-4-one]
R-55 concentration (plasma) ([2]; transdermal 500 mg R-55, 60 minutes after application, individual animals #1-#4): 10.3 ng/ml and 0 ng/ml (2×) and 10.7 ng/ml
R-55 concentration (plasma) ([2]; transdermal 500 mg R-55, 90 minutes after application, individual animals #1-#4): 16.8 ng/ml and 0 ng/ml (2×) and 10.1 ng/ml
R-55 concentration (plasma) ([2]; transdermal 500 mg R-55, 2 hours after application, individual animals #1-#4): 14.8 ng/mL and 11.8 ng/mL and 0 ng/mL and 10.7 ng/mL
